Reference: US20240173307A1, “MODULATORS OF THE INTEGRATED STRESS PATHWAY” (Calico Life Sciences LLC, priority 2017, published 2024)

test system: HEK293T cells carrying the ATF4 luciferase reporter; assay: ATF4-Luc assay (in vitro model of vanishing white matter disease); assay type: cell-based; conditions: Homo sapiens, HEK-293T, 1 μg/mL tunicamycin, 7 hours
Protocol: In order to test exemplary compounds of the invention in a cellular context, a stable VWMD cell line was first constructed. The ATF4 reporter was prepared by fusing the human full-length ATF4 5′-UTR (NCBI Accession No. BCO22088.2) in front of the firefly luciferase (FLuc) coding sequence lacking the initiator methionine as described in Sidrauski et al (eLife 2013). The construct was used to produce recombinant retroviruses using standard methods and the resulting viral supernatant was used to transduce HEK293T cells, which were then subsequently selected with puromycin to generate a stable cell line.
HEK293T cells carrying the ATF4 luciferase reporter were plated on polylysine coated 384-well plates (Greiner Bio-one) at 30,000 cells per well. Cells were treated the next day with 1 μg/mL tunicamycin and 200 nM of a compound of Formula (I) for 7 hours. Luminescence was measured using One Glo (Promega) as specified by the manufacturer. Cells were maintained in DMEM with L-glutamine supplemented with 10% heat-inactivated FBS (Gibco) and Antibiotic-Antimycotic solution (Gibco).
Table 2 below summarizes the EC50 data obtained using the ATF4-Luc assay for exemplary compounds of the invention.

Compound	EC50 [nM]
O=C(COc1ccc(Cl)c(F)c1)NC12CC(C(=O)NCCOc3ccc(Cl)c(F)c3)(C1)C2 [Compound 340, 3-[2-(4-chloro-3-fluorophenoxy)acetamido]-N-[2-(4-chloro-3-fluorophenoxy)ethyl]bicyclo[1.1.1]pentane-1-carboxamide]	< 250
O=C(COc1ccc(Cl)c(F)c1)NC12CCC(C(=O)Nc3ccc(OC(F)(F)F)nc3)(CC1)CC2 [Compound 280, 4-[2-(4-chloro-3-fluorophenoxy)acetamido]-N-[6-(trifluoromethoxy)pyridin-3-yl]bicyclo[2.2.2]octane-1-carboxamide]	< 250
O=C(COc1ccc(Cl)c(F)c1)NC12CCC(C(=O)NCC(=O)c3ccc(Cl)cc3)(CC1)[C@H](O)C2 [Compound 276, (2R)-4-[2-(4-chloro-3-fluorophenoxy)acetamido]-N-[2-(4-chlorophenyl)-2-oxoethyl]-2-hydroxybicyclo[2.2.2]octane-1-carboxamide]	< 250
O=C(COc1ccc(Cl)c(F)c1)NC12CCC(C(=O)Nc3ccc(OC(F)F)nc3)(CC1)CC2 [Compound 278, 4-[2-(4-chloro-3-fluorophenoxy)acetamido]-N-[6-(difluoromethoxy)pyridin-3-yl]bicyclo[2.2.2]octane-1-carboxamide]	< 250
Cn1c(CNC(=O)C23CCC(NC(=O)COc4ccc(Cl)c(F)c4)(CC2)CC3)nc2cc(F)ccc21 [Compound 323, 4-[2-(4-chloro-3-fluorophenoxy)acetamido]-N-[(5-fluoro-1-methyl-1H-benzimidazol-2-yl)methyl]bicyclo[2.2.2]octane-1-carboxamide]	< 250
O=C(COc1ccc(Cl)c(F)c1)NC12CC(C(=O)NCc3ccc(C(F)F)cn3)(C1)C2 [Compound 345, 3-[2-(4-chloro-3-fluorophenoxy)acetamido]-N-{[5-(difluoromethyl)pyridin-2-yl]methyl}bicyclo[1.1.1]pentane-1-carboxamide]	250 to 500
O=C(COc1ccc(Cl)c(Cl)c1)NC12CCC(C(=O)Nc3ccc(OC(F)(F)F)cn3)(C1)C2 [Compound 292, 4-[2-(3,4-dichlorophenoxy)acetamido]-N-[5-(trifluoromethoxy)pyridin-2-yl]bicyclo[2.1.1]hexane-1-carboxamide]	< 250
O=C(COc1ccc(Cl)c(F)c1)NC12CCC(C(=O)Nc3ccc(Cl)c(F)c3)(CC1)OC2 [Compound 338, 4-[2-(4-chloro-3-fluorophenoxy)acetamido]-N-(4-chloro-3-fluorophenyl)-2-oxabicyclo[2.2.2]octane-1-carboxamide]	< 250
O=C(COc1ccc(Cl)c(F)c1)NC12CC(C(=O)Nc3ccccc3)(C1)C2 [Compound 285, 3-[2-(4-chloro-3-fluorophenoxy)acetamido]-N-phenylbicyclo[1.1.1]pentane-1-carboxamide]	< 250
O=C(COc1ccc(Cl)c(F)c1)NC12CC(C(=O)NC(CO)c3ccc(Cl)cc3)(C1)C2 (stereo not drawn) [Compound 318, 3-[2-(4-chloro-3-fluorophenoxy)acetamido]-N-[1-(4-chlorophenyl)-2-hydroxyethyl]bicyclo[1.1.1]pentane-1-carboxamide]	> 2000
CC(O)(CNC(=O)C12CC(NC(=O)COc3ccc(Cl)c(F)c3)(C1)C2)c1ccc(Cl)cc1 (stereo not drawn) [Compound 317, 3-[2-(4-chloro-3-fluorophenoxy)acetamido]-N-[2-(4-chlorophenyl)-2-hydroxypropyl]bicyclo[1.1.1]pentane-1-carboxamide]	1000 to 2000
O=C(COc1ccc(Cl)c(F)c1)NC12CC(C(=O)Nc3ccccc3F)(C1)C2 [Compound 314, 3-[2-(4-chloro-3-fluorophenoxy)acetamido]-N-(2-fluorophenyl)bicyclo[1.1.1]pentane-1-carboxamide]	500 to 1000
COc1ccc(CNC(=O)C23CCC(NC(=O)COc4ccc(Cl)c(F)c4)(CC2)C(O)C3)nn1 (stereo not drawn) [Compound 321, 4-[2-(4-chloro-3-fluorophenoxy)acetamido]-3-hydroxy-N-[(6-methoxypyridazin-3-yl)methyl]bicyclo[2.2.2]octane-1-carboxamide]	> 2000
O=C(COc1ccc(Cl)c(F)c1)NC12CC(C(=O)Nc3ccccn3)(C1)C2 [Compound 290, 3-[2-(4-chloro-3-fluorophenoxy)acetamido]-N-(pyridin-2-yl)bicyclo[1.1.1]pentane-1-carboxamide]	< 250
O=C(COc1ccc(Cl)c(F)c1)NC12CC(C(=O)NCc3nc4cc(F)c(F)cc4[nH]3)(C1)C2 [Compound 331, 3-[2-(4-chloro-3-fluorophenoxy)acetamido]-N-[(5,6-difluoro-1H-benzimidazol-2-yl)methyl]bicyclo[1.1.1]pentane-1-carboxamide]	< 250
CCOC(=O)c1ccc(NC(=O)C23CC(NC(=O)COc4ccc(Cl)c(F)c4)(C2)C3)nc1 [Compound 311, ethyl 6-({3-[2-(4-chloro-3-fluorophenoxy)acetamido]bicyclo[1.1.1]pentane-1-carbonyl}amino)pyridine-3-carboxylate]	250 to 500
O=C(COc1ccc(Cl)c(F)c1)NC12CC(C(=O)NCCCc3ccccn3)(C1)C2 [Compound 254, 3-[2-(4-chloro-3-fluorophenoxy)acetamido]-N-[3-(pyridin-2-yl)propyl]bicyclo[1.1.1]pentane-1-carboxamide]	1000 to 2000
O=C(COc1ccc(Cl)c(Cl)c1)NC12CCC(C(=O)NCc3ccc(C(F)(F)F)cc3)(CC1)[C@@H](O)C2 (single isomer, unassigned) [Compound 264]	< 250
O=C(COc1ccc(Cl)c(F)c1)NC12CCC(C(=O)NCc3cc(C(F)(F)F)ccn3)(CC1)CC2 [Compound 332, 4-[2-(4-chloro-3-fluorophenoxy)acetamido]-N-{[4-(trifluoromethyl)pyridin-2-yl]methyl}bicyclo[2.2.2]octane-1-carboxamide]	< 250
O=C(COc1ccc(Cl)c(F)c1)NC12CCC(C(=O)NCc3ccc(C(F)(F)F)cc3)(CC1)CC2O (stereo not drawn) [Compound 274, 4-[2-(4-chloro-3-fluorophenoxy)acetamido]-3-hydroxy-N-{[4-(trifluoromethyl)phenyl]methyl}bicyclo[2.2.2]octane-1-carboxamide]	< 250
O=C(COc1ccc2c(c1)OC(F)(F)O2)NC12CCC(C(=O)Nc3ccc(OC(F)(F)F)cn3)(C1)C2 [Compound 293, 4-{2-[(2,2-difluoro-2H-1,3-benzodioxol-5-yl)oxy]acetamido}-N-[5-(trifluoromethoxy)pyridin-2-yl]bicyclo[2.1.1]hexane-1-carboxamide]	250 to 500
O=C(COc1ccc(Cl)c(F)c1)NC12CC(C(=O)Nc3ccc(OC(F)F)cn3)(C1)C2 [Compound 309, 3-[2-(4-chloro-3-fluorophenoxy)acetamido]-N-[5-(difluoromethoxy)pyridin-2-yl]bicyclo[1.1.1]pentane-1-carboxamide]	< 250
O=C(COc1ccc(Cl)c(F)c1)NC12CC(C(=O)Nc3ccc(Cl)cc3)(C1)C2 [Compound 283, 3-[2-(4-chloro-3-fluorophenoxy)acetamido]-N-(4-chlorophenyl)bicyclo[1.1.1]pentane-1-carboxamide]	< 250
O=C(CNC(=O)C12CCC(NC(=O)COc3ccc(Cl)c(F)c3)(CC1)C[C@@H]2O)Cc1ccccc1 [Compound 277, (2S)-4-[2-(4-chloro-3-fluorophenoxy)acetamido]-2-hydroxy-N-(2-oxo-3-phenylpropyl)bicyclo[2.2.2]octane-1-carboxamide]	< 250
